Reference: ChEMBL document CHEMBL1201862, “PubChem BioAssay data set” (2004)
The source made the active and inactive calls.

Columns and labels:
[1] = test system: Streptococcus sp. 'group A'; assay: Streptococcus pyogenes SK(-)GAS viability under kanamycin – luminescence, BacTiterGlo, confirmation, counter-screen for streptokinase expression inhibitor project, dose response (AID 1900); format: functional, organism-based
Streptokinase A = molecular target: T1, Streptokinase A (Streptococcus pyogenes serotype M1, UniProt P10520); assay: viability-normalized secreted streptokinase activity reduction – plasminogen activation absorbance, OD405, dose response (AID 1914); format: functional, Streptococcus pyogenes M1 GAS;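 note: secreted streptokinase activity via plasminogen activation per viability signal from cell pellet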
T1 sequence (P10520 whole entry): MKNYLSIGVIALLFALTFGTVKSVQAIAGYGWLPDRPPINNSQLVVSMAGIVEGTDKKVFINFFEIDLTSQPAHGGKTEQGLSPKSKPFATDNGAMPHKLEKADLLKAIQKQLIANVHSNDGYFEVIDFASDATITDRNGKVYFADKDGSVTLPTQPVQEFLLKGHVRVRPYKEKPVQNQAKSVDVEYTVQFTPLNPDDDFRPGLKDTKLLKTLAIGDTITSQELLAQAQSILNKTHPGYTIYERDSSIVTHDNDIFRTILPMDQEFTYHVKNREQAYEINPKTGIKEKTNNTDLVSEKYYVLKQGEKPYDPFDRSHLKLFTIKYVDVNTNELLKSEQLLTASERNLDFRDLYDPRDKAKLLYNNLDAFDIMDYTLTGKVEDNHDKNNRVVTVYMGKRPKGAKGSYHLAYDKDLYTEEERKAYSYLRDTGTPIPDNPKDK

Streptococcus = assay: GAS UMAA2166 growth inhibition – luminescence, BacTiterGlo, counter-screen for streptokinase expression inhibitor project, dose response (AID 1915); format: functional, organism-based;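 note: potency for reduction of bacterial viability or growth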
Cytochrome P450 2C9 = Cytochrome P450 2C9 (Homo sapiens, UniProt P11712)
cells [2] = format: functional, cell-based
cells [3] = format: functional, cell-based; remark: listed apart in the source
[4] = Trypanosoma cruzi growth suppression in host cells – NIH3T3 host cells, beta-gal luminescence, confirmation (AID 2044); format: functional, cell-based;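 note: intracellular parasites grown in NIH/3T3 mouse fibroblasts as host cells; luminescent beta-galactosidase reporter signal from transgenic T. cruzi replicating inside host cells; inhibitors lower the luminescence signal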
[5] = NIH3T3 cell viability loss – ATP luminescence, mouse fibroblasts, counter-screen, dose response (AID 2010); format: functional, cell-based;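 note: cells exposed to compound for about 90 hours before reading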
[6] = loss of viability in HepG2 cells – cell-based, CellTiter-Glo, cherry-picked, cytotoxicity control for Shn3 inhibitor project, dose response (AID 624134); format: functional
[7] = reduction of Shn3 3'UTR-driven luciferase in osteoblasts – cell-based, Clone20 osteoblasts, firefly luciferase, cherry-picked, dose response (AID 624132); format: functional;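 note: firefly luciferase luminescence from reporter carrying the Shn3 3'UTR in osteoblasts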
[8] = molecular target: T2, Corticotropin-releasing factor receptor 2/Corticotropin-releasing factor-binding protein (Homo sapiens, UniProt P24387+Q13324); assay: Dose Response confirmation of uHTS hits for small molecule antagonists of the CRF-binding protein and CRF-R2 receptor complex.; format: functional; settings: read-out: IC50_Mean
T2 sequence (Q13324 whole entry): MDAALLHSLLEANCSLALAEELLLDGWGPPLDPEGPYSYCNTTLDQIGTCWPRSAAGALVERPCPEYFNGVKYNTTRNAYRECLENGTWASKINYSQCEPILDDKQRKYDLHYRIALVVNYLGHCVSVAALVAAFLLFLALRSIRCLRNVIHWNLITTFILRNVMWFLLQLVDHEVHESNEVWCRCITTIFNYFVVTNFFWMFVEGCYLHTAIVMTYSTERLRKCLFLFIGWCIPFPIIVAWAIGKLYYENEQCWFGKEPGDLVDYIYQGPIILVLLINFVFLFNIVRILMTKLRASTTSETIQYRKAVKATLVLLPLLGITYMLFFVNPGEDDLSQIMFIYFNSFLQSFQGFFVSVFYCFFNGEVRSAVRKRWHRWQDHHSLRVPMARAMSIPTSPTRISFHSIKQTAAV
T2 sequence (P24387 whole entry): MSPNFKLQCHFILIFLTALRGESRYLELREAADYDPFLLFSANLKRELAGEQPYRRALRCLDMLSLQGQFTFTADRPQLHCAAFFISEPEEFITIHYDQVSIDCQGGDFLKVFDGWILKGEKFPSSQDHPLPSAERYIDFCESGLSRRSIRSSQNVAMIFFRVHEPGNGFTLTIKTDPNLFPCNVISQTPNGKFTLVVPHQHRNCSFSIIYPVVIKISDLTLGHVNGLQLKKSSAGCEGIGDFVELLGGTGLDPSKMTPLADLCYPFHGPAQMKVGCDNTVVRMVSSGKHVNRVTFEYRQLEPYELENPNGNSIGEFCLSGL

[9] = molecular target: T2, Corticotropin-releasing factor receptor 2/Corticotropin-releasing factor-binding protein; assay: activators of CRF receptor 2 with binding protein – uHTS hits, confirmation (AID 602473); format: functional; settings: read-out: EC50_Mean
[10] = molecular target: Luciferin 4-monooxygenase (Photinus pyralis, UniProt P08659); assay: inhibition of purified Photinus pyralis luciferase – biochemical, luminescence, dose response (AID 1891)
[11] = Luminescence Cell-Based Dose Confirmation HTS to Identify Inhibitors of Platelet Dense Granule Release. [Related pubchem assays: 1663 (Primary HTS), 1678 (Summary of Project)]; format: functional
Cytochrome P450 2C19 = Cytochrome P450 2C19 (Homo sapiens, UniProt P33261); assay: Cytochrome panel assay with activity outcomes. Panel member name: p450-cyp2c19 Compounds with AC50 equal or less than 10 uM are considered active; format: functional; settings: read-out: AC50
[12] = non-specific 3'UTR reporter inhibition in Clone20-Shn3RL – cell-based, Renilla luciferase, cherry-picked, counter-screen for Shn3 inhibitor project, dose response (AID 624133); format: functional
[13] = Luminescence Cell-Based Dose Response HTS to Identify Inhibitors of 5'UTR Stem-Loop Driven Prion Protein mRNA Translation in H4 Neuroglioblastoma Cells. [Related pubchem assays: 1827 (Project Summary), 1813 (Primary HTS)]; format: functional
[14] = alpha-synuclein stem-loop luciferase translation blockers – H4 neuroglioma cells, luminescence, confirmation (AID 1988); format: functional, cell-based
[15] = luciferase reporter signal suppression in cells – H4 neuroglioma cells, luminescence, dose response (AID 1990); format: functional, cell-based
[16] = viability of uninfected HEp-2 cells – cell-based, HTS, cytotoxicity control for RSV inhibitor project, dose response (AID 2410); format: functional; settings: human respiratory syncytial virus
[17] = molecular target: T3, Heat shock factor protein 1 (Mus musculus, UniProt P38532); assay: decrease of HSF1-responsive luciferase luminescence – cell-based, NIH3T3, dose retest, confirmation (AID 2382); format: functional;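 note: NIH3T3 fibroblasts with HSF1-driven luciferase reporter stressed by proteasome inhibitor MG132; luminescence from HSF1-driven luciferase expression after 8 hours of MG132 stress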
T3 sequence (P38532 whole entry): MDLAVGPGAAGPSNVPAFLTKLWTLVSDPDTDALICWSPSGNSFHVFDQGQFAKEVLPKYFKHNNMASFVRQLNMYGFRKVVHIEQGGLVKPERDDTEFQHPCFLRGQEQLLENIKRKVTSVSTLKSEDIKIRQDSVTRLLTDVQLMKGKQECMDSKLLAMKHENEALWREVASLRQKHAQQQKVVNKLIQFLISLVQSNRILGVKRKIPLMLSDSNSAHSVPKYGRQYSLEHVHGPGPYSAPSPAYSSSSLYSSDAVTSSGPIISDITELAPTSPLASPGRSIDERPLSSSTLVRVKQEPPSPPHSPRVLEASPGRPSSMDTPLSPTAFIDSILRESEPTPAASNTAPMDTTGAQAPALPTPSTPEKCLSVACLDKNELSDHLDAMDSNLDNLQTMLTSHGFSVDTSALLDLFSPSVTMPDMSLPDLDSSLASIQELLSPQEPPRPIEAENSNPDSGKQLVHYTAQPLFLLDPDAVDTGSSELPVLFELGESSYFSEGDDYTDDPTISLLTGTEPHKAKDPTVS

Luciferin 4-monooxygenase, sequence (P08659 whole entry): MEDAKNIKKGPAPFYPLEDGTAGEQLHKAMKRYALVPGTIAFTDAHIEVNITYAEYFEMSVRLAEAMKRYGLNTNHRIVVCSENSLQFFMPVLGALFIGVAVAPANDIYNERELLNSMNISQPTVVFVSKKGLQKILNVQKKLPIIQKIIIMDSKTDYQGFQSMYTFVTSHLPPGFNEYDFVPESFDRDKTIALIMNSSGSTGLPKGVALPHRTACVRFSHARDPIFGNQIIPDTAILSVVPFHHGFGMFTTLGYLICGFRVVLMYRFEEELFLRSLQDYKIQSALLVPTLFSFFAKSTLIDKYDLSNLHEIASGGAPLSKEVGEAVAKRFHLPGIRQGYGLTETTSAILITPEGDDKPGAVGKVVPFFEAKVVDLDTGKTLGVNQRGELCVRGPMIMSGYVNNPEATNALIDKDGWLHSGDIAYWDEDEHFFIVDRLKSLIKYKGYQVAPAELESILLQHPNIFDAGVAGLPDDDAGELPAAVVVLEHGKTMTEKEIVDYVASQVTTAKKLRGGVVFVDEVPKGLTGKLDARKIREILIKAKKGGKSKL
Cytochrome P450 2C9, sequence (P11712 whole entry): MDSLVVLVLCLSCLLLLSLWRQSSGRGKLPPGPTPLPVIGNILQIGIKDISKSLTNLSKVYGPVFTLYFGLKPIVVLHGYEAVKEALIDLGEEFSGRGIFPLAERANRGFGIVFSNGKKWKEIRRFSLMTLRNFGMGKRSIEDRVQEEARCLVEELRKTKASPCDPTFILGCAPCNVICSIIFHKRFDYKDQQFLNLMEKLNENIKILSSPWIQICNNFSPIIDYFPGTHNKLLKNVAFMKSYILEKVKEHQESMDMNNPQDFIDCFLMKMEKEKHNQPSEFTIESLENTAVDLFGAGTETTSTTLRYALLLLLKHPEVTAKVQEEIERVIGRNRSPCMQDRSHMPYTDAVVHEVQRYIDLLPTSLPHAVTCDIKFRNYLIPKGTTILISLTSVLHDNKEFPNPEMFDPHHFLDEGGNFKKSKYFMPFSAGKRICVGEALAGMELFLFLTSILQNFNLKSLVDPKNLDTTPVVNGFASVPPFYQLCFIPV
Cytochrome P450 2C19, sequence (P33261 whole entry): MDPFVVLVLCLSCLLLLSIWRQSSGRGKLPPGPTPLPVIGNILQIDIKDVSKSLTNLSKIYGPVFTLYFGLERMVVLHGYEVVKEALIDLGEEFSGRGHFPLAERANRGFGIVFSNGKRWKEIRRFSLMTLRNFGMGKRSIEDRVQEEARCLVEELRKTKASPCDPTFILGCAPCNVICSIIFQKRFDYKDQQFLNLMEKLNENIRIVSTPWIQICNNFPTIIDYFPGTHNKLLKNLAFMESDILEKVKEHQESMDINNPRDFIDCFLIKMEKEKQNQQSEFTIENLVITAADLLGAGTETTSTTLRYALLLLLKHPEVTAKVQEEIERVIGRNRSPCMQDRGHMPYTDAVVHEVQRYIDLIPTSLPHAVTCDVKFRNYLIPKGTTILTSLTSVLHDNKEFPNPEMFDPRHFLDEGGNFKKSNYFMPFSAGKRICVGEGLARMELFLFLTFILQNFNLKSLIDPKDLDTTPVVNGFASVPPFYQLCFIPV

COc1ccc(-c2cc3nc(-c4ccccc4)cc(N4CCCC(O)C4)n3n2)cc1 (centres undefined)
EC50 [1]: 6.75 µM (active)
EC50 (Streptokinase A): > 150 µM (not active)
EC50 (Streptococcus): 14.3 µM (active)

CCOC(=O)c1c(NC(=O)CCc2ccc(CC)o2)sc(C)c1C
AC50 (Cytochrome P450 2C9): inconclusive

COCCn1c(-c2ccc(OC)cc2)cnc1SCC(=O)Nc1ccc(OC)cc1OC
EC50 (cells [2]): > 350 µM (not active)
EC50 (cells [3]): > 350 µM (not active)

CCn1c(SCC(=O)c2cc(C)ccc2C)nc2cc(S(=O)(=O)N3CCOCC3)ccc21
EC50 (cells [2]): > 350 µM (not active)
EC50 (cells [3]): > 350 µM (not active)

Cc1ccc(-n2nnnc2SCC(=O)NNC(=O)c2ccco2)c(C)c1
AC50 (Cytochrome P450 2C9): inconclusive

CC(C)(C)n1nnnc1C(c1cccs1)N1CCCC2(CCCCC2)C1 (centres undefined)
EC50 [4]: 2.15 µM (active)
EC50 [5]: > 60 µM (not active)
AC50 [6]: > 70 µM (inactive)
AC50 [7]: 21.7 µM (active)

NC(S)=Nc1cccc2cccnc12
AC50 (Cytochrome P450 2C9): inconclusive

CCOc1ccc(C(=O)O)cc1OC
AC50 (Cytochrome P450 2C9): inconclusive

Cc1cc(C)c(C#N)c(SC[S+]([O-])c2ccc(C(C)(C)C)cc2)n1 (centres undefined)
AC50 (Cytochrome P450 2C9): inconclusive

Cc1nc(N)sc1-c1csc(N(C)c2ccc(O)cc2)n1
EC50 [1]: 5.24 µM (active)
EC50 (Streptokinase A): > 150 µM (not active)
IC50 [8]: > 47.1 µM (inactive)
EC50 (Streptococcus): 95.2 µM (active)
EC50 [9]: > 53 µM (inactive)

CC(C)[C@@H](C(=O)NC1CCCC1)N1C(=O)N2CCc3c([nH]c4ccccc34)[C@@]2(C)C1=O
EC50 [1]: 30.2 µM (active)
EC50 (Streptokinase A): > 150 µM (not active)
EC50 (Streptococcus): > 150 µM (not active)

O=C(CSc1nnc(-c2ccco2)n1Cc1ccco1)NCc1ccccc1
EC50 (cells [2]): > 350 µM (not active)
EC50 (cells [3]): > 350 µM (not active)

CCOC(=O)c1c(NC(S)=NCCc2ccccc2)sc2c1CC(C(C)C)OC2 (centres undefined)
EC50 [1]: 0.814 µM (active)
EC50 (Streptokinase A): > 150 µM (not active)
EC50 (Streptococcus): 15.1 µM (active)

CC(=O)N1CCC(=NNc2nc3ccccc3[nH]2)CC1
EC50 (cells [2]): > 350 µM (not active)
EC50 (cells [3]): 32.3 µM (active)

Cc1ccc2cc3cc(C(=O)N4CCC5(CC4)OCCO5)oc3nc2c1
AC50 (Cytochrome P450 2C9): inconclusive

N=c1c2c(-c3ccccc3)c(-c3ccccc3)oc2ncn1Cc1ccco1
EC50 [1]: 6.44 µM (active)
EC50 (Streptokinase A): 17.5 µM (active)
EC50 (Streptococcus): 30.3 µM (active)

COc1ccc(CCNC(=O)c2ccc(CNS(=O)(=O)c3ccc(C(C)(C)C)cc3)cc2)cc1OC
EC50 (Streptokinase A): > 150 µM (not active)
EC50 (Streptococcus): 35.9 µM (active)

CC(C)OCCCNCC(O)c1ccccc1 (centres undefined)
EC50 [10]: > 112 µM (not active)
EC50 [11]: > 112 µM (not active)

CCn1nnnc1SCC(=O)NC1CCCC1
EC50 [10]: > 112 µM (not active)
AC50 (Cytochrome P450 2C19): 35.5 µM (inconclusive)
EC50 [11]: > 112 µM (not active)

COc1cccc(C(=O)NC(=S)Nc2ccccc2N2CCCCC2)c1
EC50 [1]: 57.8 µM (active)
EC50 (Streptokinase A): 41 µM (active)
EC50 (Streptococcus): > 150 µM (not active)

COc1ccc(/C=C2/Sc3ccc(C(=O)N4CCc5ccccc5C4)cc3NC2=O)cc1
EC50 [1]: 1.73 µM (active)
EC50 (Streptokinase A): > 150 µM (not active)
EC50 (Streptococcus): 4.98 µM (active)

COc1ccc(S(=O)(=O)N2CCN(C(=O)c3cc(-c4ccc(Br)cc4)[nH]n3)CC2)cc1OC
AC50 [6]: 55.6 µM (active)
AC50 [7]: 4.55 µM (active)
AC50 [12]: 4.76 µM (active)

CCCCCOc1ccc(Br)cc1CSC(=N)N
AC50 [6]: 11.3 µM (active)
AC50 [7]: 1.47 µM (active)
AC50 [12]: 10.5 µM (active)

COC(=O)c1ccc(C(C(=O)NCc2ccccc2)N(Cc2ccco2)C(=O)c2cnccn2)cc1 (centres undefined)
EC50 (cells [2]): > 350 µM (not active)
EC50 (cells [3]): > 350 µM (not active)

CCCn1c2ccccc2c2cnn(CC(=O)NC3CCCC(C)C3C)c(=O)c21 (centres undefined)
EC50 (cells [2]): > 350 µM (not active)
EC50 (cells [3]): > 350 µM (not active)

CCCOc1ccc(C2C(C(=O)c3cc4ccccc4o3)=C(O)C(=O)N2c2cc(C)on2)cc1OC (centres undefined)
EC50 [1]: 1.2 µM (active)
EC50 (Streptokinase A): > 150 µM (not active)
EC50 (Streptococcus): 5.24 µM (active)

CC(C)c1ccc(-c2c(C#N)c(N)nc3c2CCCCC3)cc1
EC50 [13]: > 120 µM (not active)
EC50 [14]: 41.9 µM (active)
EC50 (cells [2]): > 350 µM (not active)
EC50 (cells [3]): > 350 µM (not active)
EC50 [15]: > 120 µM (not active)

COc1ccccc1N(C)S(=O)(=O)c1ccc(C(=O)Nc2cc(F)ccc2C)cc1
AC50 [6]: > 70 µM (inactive)
AC50 [7]: 13.8 µM (active)
AC50 [12]: 26.5 µM (active)

COc1ccc(CC(N)c2csc(NC(=O)c3cc(C(C)(C)C)nn3Cc3ccccc3)n2)cc1 (centres undefined)
AC50 [6]: 9.69 µM (active)
AC50 [7]: 9.53 µM (active)
AC50 [12]: 22.9 µM (active)

Cc1ccc(-c2nn(-c3ccccc3)cc2/C=N/n2c(S)nnc2-c2cccs2)cc1
EC50 [1]: 10.3 µM (active)
CC50 [16]: 14.7 µM (active)
EC50 (Streptokinase A): 103 µM (active)
EC50 (Streptococcus): 82.8 µM (active)

COc1ccc(/C=N/NC(=S)Nc2cc(S(=O)(=O)N3CCOCC3)ccc2N2CCOCC2)cc1O
EC50 (cells [2]): > 350 µM (not active)
EC50 (cells [3]): > 350 µM (not active)

O=C(N/N=C/c1cc2cc3c(cc2nc1Cl)OCO3)c1ccncc1
EC50 [10]: > 112 µM (not active)
EC50 (cells [2]): > 350 µM (not active)
EC50 (cells [3]): > 350 µM (not active)
EC50 [11]: > 112 µM (not active)

COC(=O)N/N=C\C=C\c1ccc2c(c1)OCO2
AC50 (Cytochrome P450 2C9): inconclusive

Cc1ccc(/C(O)=C/C=N/c2ccccn2)cc1
EC50 [13]: 1.4 µM (active)
EC50 [14]: 0.188 µM (active)
EC50 [17]: 4.24 µM (active)
EC50 [10]: 1.64 µM (active)
EC50 [15]: 3.18 µM (active)
EC50 [11]: 5.11 µM (active)
